Data on 22 compounds can be found in article PMC7918538 (Pharmaceuticals, 2021).

Values after ≈ are worked out from the molar mass of the structure shown. Values joined by “and” are separate entries in the source; they are usually repeats but may differ in a detail not shown here. Identical values can stand only once. Like-named read-outs stand apart in the source and are kept apart here.

In data set [1] the target is T1, Recombinant M. tuberculosis MbtI (Mycobacterium tuberculosis, UniProt P9WFX1).
T1 construct: made in house
Nature of the data set: MbtI enzymatic inhibition assay (fluorimetric, salicylic acid formation). It counts as biochemical. To be noted: for activity against MbtI (in words): discussion of Table 1. Here is the method: Recombinant M. tuberculosis MbtI was produced and purified as previously reported. Enzyme activity was determined at 37 °C, measuring the formation of salicylic acid by a fluorimetric assay, slightly modified from Vasan et al.. Briefly, the reactions were performed in a final volume of 400 μL of 50 mM Hepes pH 7.5, 5 mM MgCl2, containing 1-2 μM MbtI, by the addition of chorismic acid, and monitored using a Perkin-Elmer LS3 fluorimeter (Ex. λ = 305 nm, Em. λ = 420 nm). Inhibition assays were performed in the presence of the compound at 100 µM (stock solution 20 mM in DMSO) and 50 µM chorismic acid. Where possible, compounds were tested both as free acids and sodium salts, providing analogous results. […] To this end, the activity was measured at different compound concentrations, and values were calculated according to Equation (1), with Origin 8 software:(1) A[I] = A[0] × (1 −[I]/[I] + IC50) where A[I] is the activity at inhibitor concentration [I] and A[0] is the activity in the absence of the inhibitor.
The Ki was determined at different substrate [S] and compound concentrations, using Equation (2):(2) v = Vmax[S]/[S] + Km (1 + [I]/Ki)

The target in data set [2] is T1, Recombinant M. tuberculosis MbtI. As to conditions: cited from earlier work; for %RA (% residual enzymatic activity at 100 µM): previous furan leads I and II shown in Table 1 for comparison.
For another data set, the system named is eukaryotic cells. Also noted: method as in PMID 32530281, PMID 30889995, PMID 29940465, PMID 29933627. To be noted: previous leads; cited from earlier work.
Data set [3] deals with M. bovis BCG. As to conditions: previous lead I given for comparison; cited from earlier work.
In data set [4] the test system is M. bovis BCG. Put plainly: microbe, parasite or virus in culture. The class given is cell-based.
Setting [5] is: Table 2, furans IV–IX, compound 100 µM, 50 µM chorismic acid, read-out: % RA (% residual enzymatic activity at 100 µM).
The mark [6] stands for this setting: Table 2, furans IV–IX, only for compounds with %RA ≤ 25%, read-out: IC50.
Where [7] appears, read: rounded value, read-out: IC50 against MbtI.
Where [8] appears, read: Series A R = m-CNPh, compound 100 µM, 50 µM chorismic acid, read-out: %RA (% residual enzymatic activity at 100 µM).
The mark [9] stands for this setting: Series A R = m-CNPh, only for compounds with %RA ≤ 25%, read-out: IC50.
Setting [10] is: compound 100 µM, rounded value, read-out: % residual enzymatic activity (%RA) at 100 µM.
Where [11] appears, read: Series B R = p-NO2Ph, compound 100 µM, 50 µM chorismic acid, read-out: %RA (% residual enzymatic activity at 100 µM).
Where [12] appears, read: Series B R = p-NO2Ph, only for compounds with %RA ≤ 25%, read-out: IC50.

T1 sequence (P9WFX1 whole entry): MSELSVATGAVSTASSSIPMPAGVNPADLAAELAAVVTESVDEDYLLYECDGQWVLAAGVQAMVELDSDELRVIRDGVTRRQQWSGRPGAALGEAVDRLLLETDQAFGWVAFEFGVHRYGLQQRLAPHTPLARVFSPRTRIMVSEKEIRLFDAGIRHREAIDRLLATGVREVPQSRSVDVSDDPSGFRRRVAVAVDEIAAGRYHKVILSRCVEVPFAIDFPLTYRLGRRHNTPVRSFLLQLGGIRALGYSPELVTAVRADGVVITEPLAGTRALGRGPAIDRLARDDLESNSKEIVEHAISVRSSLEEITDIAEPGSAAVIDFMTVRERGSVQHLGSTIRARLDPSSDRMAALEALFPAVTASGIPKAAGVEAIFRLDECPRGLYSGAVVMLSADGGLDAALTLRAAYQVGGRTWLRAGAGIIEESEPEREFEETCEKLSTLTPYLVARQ

As for `N#Cc1cc(O)cc(-c2ccc(C(=O)O)o2)c1` [IX, 5-(3-cyano-5-hydroxyphenyl)furan-2-carboxylic acid], in data set [1] (setting [5]), the remaining activity at 100 µM came out at 15.3 ± 2.6%. Further, the figures for the IC50 in data set [1] (setting [6]) and in data set [1] (setting [7]) were 33.5 ± 3.4 µM and approximately 33 µM, respectively.

Turning to `N#Cc1cccc(-c2ccc(C(=O)O)s2)c1` [1a, 5-(3-Cyanophenyl)thiophene-2-carboxylic acid], the melting point (usually the temperature of the solid-liquid transition) came out at 207 °C. Also, the remaining activity at 100 µM in data set [1] (setting [8]) was 23.7 ± 5%. The concentration for half-maximal inhibition (IC50) (usually the concentration that gives 50% inhibition) in data set [1] (setting [9]) came to 35.5 ± 1.9 µM. In addition, the remaining activity at 100 µM in data set [1] (setting [10]) was approximately 23%.

Consider `N#Cc1cccc(-c2nnc(C(=O)O)o2)c1` [5a, 5-(3-Cyanophenyl)-1,3,4-oxadiazole-2-carboxylic acid], for which the melting point was 222 °C (dec.). The remaining activity at 100 µM in data set [1] (setting [8]) was determined as 75 ± 9.8%.

As to `N#Cc1cccc(-n2cc(C(=O)O)nn2)c1` [6a, 1-(3-Cyanophenyl)-1H-1,2,3-triazole-4-carboxylic acid], the remaining activity at 100 µM in data set [1] (setting [8]) was 67.9 ± 6.6%.

In the case of `Cc1cc(C#N)cc(-c2ccc(C(=O)O)o2)c1` [VIII, 5-(3-cyano-5-methylphenyl)furan-2-carboxylic acid], the remaining activity at 100 µM in data set [1] (setting [5]) turned out to be 16.7 ± 3.8%. The IC50 was 29.1 ± 1.8 µM in data set [1] (setting [6]) and approximately 29 µM in data set [1] (setting [7]).

For `O=C([O-])c1ncc(-c2ccc([N+](=O)[O-])cc2)s1.[Na+]` [2b, Sodium 5-(4-nitrophenyl)thiazole-2-carboxylate], the melting point was > 300 °C (dec.). Further, in data set [1] (setting [11]), the remaining activity at 100 µM is 32.8 ± 2.3%. The “activity against MbtI (in words)” value in data set [1] is “weaker inhibitors”.

In turn, `O=C(O)c1ncc(-c2ccc([N+](=O)[O-])cc2)[nH]1` [4b, 5-(4-Nitrophenyl)-1H-imidazole-2-carboxylic acid] returned a melting point of 137 °C. The remaining activity at 100 µM in data set [1] (setting [11]) came to 18.2 ± 4.9%. The IC50 in data set [1] (setting [12]) was 27.5 ± 2.3 µM. Moreover, in data set [1], the “activity against MbtI (in words)” value was “weak activity”.

On to `O=C(O)c1cn(-c2ccc([N+](=O)[O-])cc2)nn1` [6b, 1-(4-Nitrophenyl)-1H-1,2,3-triazole-4-carboxylic acid], for which the melting point was determined as 175 °C. Besides, the remaining activity at 100 µM in data set [1] (setting [11]) was determined as 32.7 ± 7.8%.

In the case of `O=C(O)c1ccc(-c2cc(C(F)(F)F)cc(C(F)(F)F)c2)o1` [V, 5-(3,5-Bis(trifluoromethyl)phenyl)furan-2-carboxylic acid], in data set [1] (setting [5]), the remaining activity at 100 µM is 8.9 ± 1.6%. The concentration for half-maximal inhibition (IC50) in data set [1] (setting [6]) is 18.8 ± 6.8 µM; in data set [1] (setting [7]), approximately 19 µM.

Take `N#Cc1cc(C(F)(F)F)ccc1-c1ccc(C(=O)O)o1` [5-(2-cyano-4-(trifluoromethyl)phenyl)furan-2-carboxylic acid]: the IC50 in data set [2] (previously published disubstituted furans, read-out: IC50 against MbtI) was approximately 18 µM.

Regarding `O=C(O)c1ccc(-c2ccc([N+](=O)[O-])cc2)s1` [1b, 5-(4-Nitrophenyl)thiophene-2-carboxylic acid], the melting point is 189 °C. Further, the remaining activity at 100 µM in data set [1] (setting [11]) was found to be 22.5 ± 10.8%. Besides, the IC50 in data set [1] (setting [12]) stood at 18.6 ± 1.7 µM. The remaining activity at 100 µM in data set [1] (setting [10]) is approximately 23%.

Take `O=C(O)c1ccc(-c2ccc([N+](=O)[O-])cc2)o1` [II]: the “%RA (% residual enzymatic activity at 100 µM)” value in data set [2] is given as 18.2 ± 5.1%. Also, in the data set with eukaryotic cells, the “cytotoxicity towards eukaryotic cells (in words)” value is “negligible cytotoxicity”.

In the case of `O=C(O)c1nnc(-c2ccc([N+](=O)[O-])cc2)o1` [5b, 5-(4-Nitrophenyl)-1,3,4-oxadiazole-2-carboxylic acid], the melting point was 220 °C (dec.). Moreover, the remaining activity at 100 µM in data set [1] (setting [11]) came to 59 ± 4.3%.

For `N#Cc1cccc(-c2cnc(C(=O)O)[nH]2)c1` [4a, 5-(3-Cyanophenyl)-1H-imidazole-2-carboxylic acid], the melting point is 165 °C. Moreover, in data set [1] (setting [8]), the remaining activity at 100 µM came out at 21.2 ± 1%. Moreover, in data set [1] (setting [9]), the IC50 was found to be 39.3 ± 3 µM. Besides, the “activity against MbtI (in words)” value in data set [1] is “weak activity”.

With `O=C(O)c1ccc(-c2ccccc2)o1` [III], the “MbtI activity (in words)” value in data set [2] (removal of the substituent from the phenyl ring) is “complete loss of activity”.

For `O=C([O-])c1ncc(-c2ccc([N+](=O)[O-])cc2)o1.[Na+]` [3b, Sodium 5-(4-nitrophenyl)oxazole-2-carboxylate], the melting point was > 300 °C (dec.). Moreover, the remaining activity at 100 µM in data set [1] (setting [11]) amounted to 23 ± 7.8%. Further, in data set [1] (setting [12]), the IC50 stood at 21.1 ± 2.7 µM. For the same compound, the “activity against MbtI (in words)” value in data set [1] is given as “modest activity”.

`N#Cc1cccc(-c2ccc(C(=O)O)o2)c1` [I]: the MIC99 in the data set on M. bovis BCG [3] is given as 250 µM (≈ 53.3 µg/mL). Further, in data set [2], the “%RA (% residual enzymatic activity at 100 µM)” value is given as 3.1 ± 1.0%. In addition, in the data set with eukaryotic cells, the “cytotoxicity towards eukaryotic cells (in words)” value is on record as “negligible cytotoxicity”.

Take `N#Cc1cc(F)cc(-c2ccc(C(=O)O)o2)c1` [VI, 5-(3-cyano-5-fluorophenyl)furan-2-carboxylic acid]: in data set [1] (setting [5]), the remaining activity at 100 µM stood at 8.7 ± 1.4%. Further, the IC50 in data set [1] (setting [6]) was 17.3 ± 3.1 µM.

For `N#Cc1cccc(-c2cnc(C(=O)[O-])o2)c1.[Na+]` [3a, Sodium 5-(3-cyanophenyl)oxazole-2-carboxylate], the melting point was > 300 °C (dec.). In data set [1] (setting [8]), the remaining activity at 100 µM stood at 38 ± 7.6%. Moreover, the “activity against MbtI (in words)” value in data set [1] is recorded as “negligible activity”.

As for `N#Cc1cccc(-c2cnc(C(=O)[O-])s2)c1.[Na+]` [2a, Sodium 5-(3-cyanophenyl)thiazole-2-carboxylate], the melting point is > 300 °C (dec.). Further, in data set [1] (setting [8]), the remaining activity at 100 µM is 24.8 ± 1.8%. Besides, in data set [1] (setting [9]), the half-maximal inhibitory concentration (IC50) came to 41.9 ± 7.3 µM. Also, the “activity against MbtI (in words)” value in data set [1] is on record as “weaker inhibitors”.

Regarding `COc1cc(C#N)cc(-c2ccc(C(=O)O)o2)c1` [VII, 5-(3-Cyano-5-methoxyphenyl)furan-2-carboxylic acid], the remaining activity at 100 µM in data set [1] (setting [5]) turned out to be 10.5 ± 3.9%. Also, in data set [1] (setting [6]), the IC50 is 14.5 ± 2.1 µM. The “activity against MbtI (in words)” value in data set [1] is “comparable IC50 with respect to IV”.

On to `N#Cc1cc(-c2ccc(C(=O)O)o2)cc(C(F)(F)F)c1` [IV, 5-(3-Cyano-5-(trifluoromethyl)phenyl)furan-2-carboxylic acid], for which the remaining activity at 100 µM in data set [1] (setting [5]) is 0.7 ± 2.7%; in data set [1] (read-out: % residual enzymatic activity (%RA) at 100 µM), approximately 1%. In addition, the values for the 50% inhibitory concentration (IC50) in data set [1] (setting [6]) and in data set [1] (setting [7]) were 15.5 ± 3.1 µM and approximately 15 µM, respectively. Moreover, the Ki (commonly a measure of affinity in units of concentration, obtained from inhibition or displacement) in data set [1] (kinetic analysis at different chorismic acid and compound concentrations) was 9.2 µM and ~9 µM. Also, in data set [1] (steady-state kinetics towards chorismic acid), the “nature of inhibition against MbtI” value is recorded as “competitive inhibitor”. The MIC99 is 125 µM (≈ 35.1 µg/mL) in the data set with M. bovis BCG [4] (M. bovis BCG, iron-limiting conditions (chelated Sauton's medium), REMA) and 125 µM (≈ 35.1 µg/mL) against M. bovis BCG [4] (Mycobacterium tuberculosis variant bovis BCG, BCG).
